26 compounds from US11192907B2, “Aminopeptidase A inhibitors and pharmaceutical compositions comprising the same” (QUANTUM GENOMICS, priority 2018, dated 2021) can be followed below.

Series [1] addresses T1, recombinant mouse APA (Mus musculus, UniProt P16406).
T1 sequence (P16406 1-945): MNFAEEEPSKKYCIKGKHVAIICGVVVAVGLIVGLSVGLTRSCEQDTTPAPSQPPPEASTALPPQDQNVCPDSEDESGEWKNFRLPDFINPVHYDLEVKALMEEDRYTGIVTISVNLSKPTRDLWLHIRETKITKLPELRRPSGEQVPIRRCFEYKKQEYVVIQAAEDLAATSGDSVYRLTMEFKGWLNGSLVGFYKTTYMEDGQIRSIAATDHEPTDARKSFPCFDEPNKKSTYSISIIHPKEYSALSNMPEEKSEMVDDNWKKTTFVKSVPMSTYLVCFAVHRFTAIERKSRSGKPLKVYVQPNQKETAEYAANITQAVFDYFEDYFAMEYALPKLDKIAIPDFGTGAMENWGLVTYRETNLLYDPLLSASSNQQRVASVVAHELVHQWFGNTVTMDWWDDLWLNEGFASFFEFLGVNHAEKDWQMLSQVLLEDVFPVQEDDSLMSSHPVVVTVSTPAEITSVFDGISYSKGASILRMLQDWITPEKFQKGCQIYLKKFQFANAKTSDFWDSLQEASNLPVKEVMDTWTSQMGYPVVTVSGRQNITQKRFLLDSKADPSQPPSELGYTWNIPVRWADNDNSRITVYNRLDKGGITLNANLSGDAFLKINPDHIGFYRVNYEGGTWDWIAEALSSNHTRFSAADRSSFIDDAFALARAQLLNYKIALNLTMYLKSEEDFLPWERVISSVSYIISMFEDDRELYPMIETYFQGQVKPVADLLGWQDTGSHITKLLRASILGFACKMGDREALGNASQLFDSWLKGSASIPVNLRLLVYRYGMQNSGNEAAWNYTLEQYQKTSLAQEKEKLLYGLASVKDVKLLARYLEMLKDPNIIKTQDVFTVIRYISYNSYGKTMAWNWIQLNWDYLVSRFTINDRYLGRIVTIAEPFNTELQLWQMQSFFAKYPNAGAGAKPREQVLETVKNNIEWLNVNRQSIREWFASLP
Description: Measurement of APA activity in vitro (GluβNa hydrolysis, microplate). Format: biochemical. The following applies: 200 μM Glu-βNa, pH 7.4, 37° C., read-out: In vitro inhibition of aminopeptidase A, IC50 classification. The source says:
In vitro, in the presence of calcium ions, APA hydrolyses a synthetic substrate α-L-glutamyl-β-naphthylamide (GluβNa) to glutamate and β-naphthylamine (βNa). A diazotation reaction in acidic medium makes it possible to reveal the β-naphthylamine by formation of a violet-coloured complex: spectrophotometric measurement then makes it possible to know the amount of complex formed and, by reference to a standard curve produced with increasing concentrations of β-naphthylamine, to deduce the enzymatic activity of the sample.
The reaction takes place at pH 7.4 in 50 mM tris-HCl buffer, in the presence of calcium (4 mM CaCl2)); recombinant mouse APA is incubated at 37° C. in the presence of the substrate (200 μM Glu-βNa) and in the presence or absence of various concentrations of the inhibitor to be tested, in a final volume of 100 μL. The reaction is stopped by adding 10 μL of 3N HCl. A standard curve of β-naphthylamine was prepared in parallel by diazotizing increasing concentrations (up to 0.2 mM) of 2-naphthylamine in 0.1 N HCl.
The following are added to each well: 25 μL of sodium nitrite (NaNO2) (mix, wait 5 minutes at room temperature), 50 μL of ammonium sulfamate (mix, wait 5 minutes at room temperature), then add 25 μL of N-(1-naphthyl) ethylenediamine dihydrochloride (mix, wait for stabilization of the violet colour for approximately 30 minutes at 37° C.).
The absorbance is then measured at 540 nm.

For series [2], the target named is T2, brain APA (Mus musculus, UniProt P16406).
T2 construct: from tissue; host or cells: mouse brain homogenate
T2 sequence (P16406 1-945): T1 sequence (P16406 1-945)
Description: Measurement of brain APA activity ex vivo after i.v. administration. Format: in vivo, mice. The following applies: for brain APA activity: 10 min. How it is done: Brain APA activity was determined as described above.
In vivo, in mice (male, 18-20 g Charles River), Examples 22 and 52 were administered i.v. (5 mg/kg and 4 mg/kg respectively, in a volume of 200 μL). For each condition, five mice were used. Mice were sacrified 10, 30, 60, 120 and 180 min after the injection. The brains were immediately removed and homogenized by sonication in 10 vol of ice-cold 50 mM Tris-HCl buffer (pH 7.4). APA enzymatic activity was measured on brain homogenates. For this purpose, aliquots of the tissue homogenate (16 μL) were incubated for 30 min at 37° C. with 200 μM of GluβNA, 4 mM CaCl2, and 1 μM bestatin inhibitor, with or without 5 μM EC33, in a total volume of 100 μL of 50 mM Tris-HCl buffer (pH 7.4). Then the assay was pursued as described above.

As to `NC(CCC(=O)O)P(=O)(O)CCc1ccccc1` (stereo not drawn) [Example 22, 4-amino-4-[hydroxy(2-phenylethyl)phosphoryl]butanoic acid], the half-inhibitory concentration (IC50) – broadly, the concentration at which inhibition is half-maximal – in series [1] was less than 30 nM. In addition, the “brain APA activity maximally decreased by” value in series [2] (5 mg/kg i.v., conscious mice, from 10 min until 60 min) is 47%. Further, in series [2] (5 mg/kg i.v., mice), the “brain APA activity” value is 37.5±3.3 nmol of GluNA hydrolyzed per mg of protein per h. Also, the “brain APA activity time course” value in series [2] (5 mg/kg i.v., mice, after 120 min) is given as “return to basal values”. In series [2] (5 mg/kg i.v., mice, by inhibition of brain APA activity), the “ability to cross the blood brain barrier and enter the brain” value was “cross the blood brain barrier (BBB) and to enter the brain”. In the case of `NC(CCC(=O)O)P(=O)(O)CCCc1ccccc1` (stereo not drawn) [Example 37, 4-amino-4-[hydroxy(3-phenylpropyl)phosphoryl]butanoic acid], the IC50 in series [1] lay in the range of 30 to 300 nM. Still for that read-out and setting: as for `NC(CCC(=O)O)P(=O)(O)CCc1ccccc1OC(F)(F)F` (stereo not drawn) [Example 38, 4-amino-4-[hydroxy({2-[2-(trifluoromethoxy)phenyl]ethyl})phosphoryl]butanoic acid], the figure is less than 30 nM. On the same count and under the same terms, as for `NC(CCC(=O)O)P(=O)(O)CCc1ccccc1-c1ccccc1` (stereo not drawn) [Example 39, 4-amino-4-[(2-{[1,1′-biphenyl]-2-yl}ethyl)(hydroxy)phosphoryl]butanoic acid], the figure is 30 to 300 nM. On the same count and under the same terms, as for `NC(CCC(=O)O)P(=O)(O)CCc1cccc(Cl)c1Cl` (stereo not drawn) [Example 40, 4-amino-4-{[2-(2,3-dichlorophenyl)ethyl](hydroxy)phosphoryl}butanoic acid], the figure is less than 30 nM. On to `COc1c(Cl)cccc1CCP(=O)(O)C(N)CCC(=O)O` (stereo not drawn) [Example 41, 4-amino-4-{[2-(3-chloro-2-methoxyphenyl)ethyl](hydroxy)phosphoryl}butanoic acid], for which the 50% inhibitory concentration (IC50) in series [1] was in the range of 30 to 300 nM. The same measure, in the same setting: as for `Cn1cc(CCP(=O)(O)C(N)CCC(=O)O)c2ccccc21` (stereo not drawn) [Example 42, 3-carboxy-1-{hydroxy[2-(1-methyl-1H-indol-3-yl)ethyl]phosphoryl}propan-1-aminium chloride], the figure is 30 to 300 nM; as for `NC(CCC(=O)O)P(=O)(O)CCc1ccccc1OC1CCCCC1` (stereo not drawn) [Example 43, 3-carboxy-1-({2-[2-(cyclohexyloxy)phenyl]ethyl}(hydroxy)phosphoryl) propan-1-aminium chloride], less than 30 nM; as for `COCCOc1ccccc1CCP(=O)(O)C(N)CCC(=O)O` (stereo not drawn) [Example 44, 3-carboxy-1-[hydroxy({2-[2-(2-methoxyethoxy)phenyl]ethyl})phosphoryl]propan-1-aminium chloride], less than 30 nM. Same read-out and setting: the figure for `COc1cc(F)ccc1CCP(=O)(O)C(N)CCC(=O)O` (stereo not drawn) [Example 46, 4-amino-4-{[2-(4-fluoro-2-methoxyphenyl)ethyl](hydroxy)phosphoryl}butanoic acid] is less than 30 nM. Same read-out and setting: the figure for `NC(CCC(=O)O)P(=O)(O)CCn1ncc2ccccc21` (stereo not drawn) [Example 47, 4-amino-4-{hydroxy[2-(1H-indazol-1-yl)ethyl]phosphoryl}butanoic acid] is 300 to 10000 nM; for `NC(CCC(=O)O)P(=O)(O)CCc1ccccc1OCc1ccccc1` (stereo not drawn) [Example 48, 1-({2-[2-(benzyloxy)phenyl]ethyl}(hydroxy)phosphoryl)-3-carboxy propan-1-aminium chloride] it is less than 30 nM. Regarding `NC(CCCC(=O)O)P(=O)(O)CCc1ccccc1` (stereo not drawn) [Example 49, 5-amino-5-[hydroxy(2-phenylethyl)phosphoryl]pentanoic acid], the IC50 in series [1] was in the range of 300 to 10000 nM.

As for `N[C@@H](CCC(=O)O)P(=O)(O)CCc1ccccc1` [Example 50, (1R)-3-carboxy-1-[hydroxy(2-phenylethyl)phosphoryl]propan-1-aminium chloride], the IC50 in series [1] is less than 30 nM. Still for that read-out and setting: the figure for `N[C@H](CCC(=O)O)P(=O)(O)CCc1ccccc1` [Example 51, (1S)-3-carboxy-1-[hydroxy(2-phenylethyl)phosphoryl]propan-1-aminium chloride] is 300 to 10000 nM. Consider `COc1ccccc1CCP(=O)(O)[C@@H](N)CCC(=O)O.Cl` [Example 52, (1R)-3-carboxy-1-{hydroxy[2-(2-methoxyphenyl)ethyl]phosphoryl} propan-1-aminium chloride], for which, in series [1], the IC50 is less than 30 nM. Besides, in series [2] (4 mg/kg i.v., mice), the “brain APA activity” value is 12.0±4.0 nmol of GluNA hydrolyzed per mg of protein per h. Moreover, the “ability to cross the BBB and enter the brain” value in series [2] (4 mg/kg i.v., mice, by inhibition of brain APA activity) was “cross the BBB and to enter the brain”. In addition, the inhibition at 4 mg/kg in series [2] (mouse, iv, 4 mg/kg i.v., mice, 120 min after the injection, read-out: brain APA activity inhibited by) came to 35%.

For the compound `N[C@@H](CCC(=O)O)P(=O)(O)CCc1ccccc1OC1CCCCC1` [Example 53, (4R)-4-amino-4-({2-[2-(cyclohexyloxy)phenyl]ethyl} (hydroxy)phosphoryl) butanoic acid], in series [1], the IC50 is less than 30 nM. The same measure, in the same setting: the figure for `COc1ccccc1CP(=O)(O)C(N)CCS(=O)(=O)O` (stereo not drawn) [Example 60, 3-amino-3-{hydroxy[(2-methoxyphenyl)methyl]phosphoryl}propane-1-sulfonic acid] is 30 to 300 nM; for `NC(CCS(=O)(=O)O)P(=O)(O)CCc1ccccc1` (stereo not drawn) [Example 61, 3-amino-3-[hydroxy(2-phenylethyl)phosphoryl]propane-1-sulfonic acid] it is 300 to 10000 nM.

For the compound `COc1ccccc1CCP(=O)(O)C(N)CCS(=O)(=O)O` (stereo not drawn) [Example 62, 3-amino-3-{hydroxy[2-(2-methoxyphenyl)ethyl]phosphoryl}propane-1-sulfonic acid], the half-maximal inhibitory concentration (IC50) in series [1] lay in the range of 30 to 300 nM.

As to `NC(CCS(=O)(=O)O)P(=O)(O)CCCc1ccccc1` (stereo not drawn) [Example 63, 3-amino-3-[hydroxy(3-phenylpropyl)phosphoryl]propane-1-sulfonic acid], the IC50 in series [1] lay within 300 to 10000 nM.

As for `NC(CCS(=O)(=O)O)P(=O)(O)Cc1cccc(-c2ccccc2)c1` (stereo not drawn) [Example 64, 3-amino-3-[({[1,1′-biphenyl]-3-yl}methyl)(hydroxy)phosphoryl]propane-1-sulfonic acid], the IC50 in series [1] lay in the range of 300 to 10000 nM. Still for that read-out and setting: as for `NC(CCS(=O)(=O)O)P(=O)(O)Cc1cc(-c2ccccc2)no1` (stereo not drawn) [Example 65, 3-amino-3-{hydroxy[(3-phenyl-1,2-oxazol-5-yl)methyl]phosphoryl}propane-1-sulfonic acid], the figure is 300 to 10000 nM; as for `NC(CCS(=O)(=O)O)P(=O)(O)Cc1cc(-c2ccccc2)on1` (stereo not drawn) [Example 66, 3-amino-3-{hydroxy[(5-phenyl-1,2-oxazol-3-yl)methyl]phosphoryl}propane-1-sulfonic acid], 300 to 10000 nM. On the same count and under the same terms, as for `NC(CCCS(=O)(=O)O)P(=O)(O)CCc1ccccc1` (stereo not drawn) [Example 67, 4-amino-4-[hydroxy(2-phenylethyl)phosphoryl]butane-1-sulfonic acid], the figure is 30 to 300 nM; as for `NC(CCP(=O)(O)O)P(=O)(O)CCc1ccccc1` (stereo not drawn) [Example 68, {3-amino-3-[hydroxy(2-phenylethyl)phosphoryl]propyl}phosphonic acid], 300 to 10000 nM.
